Source: patent publication US20230084927A1, “GLUCOSE UPTAKE INHIBITORS AND USES THEREOF” (METABOMED LTD., priority 2019, published 2023)

The molecules below were run on SDH-KO-HRAS cells (SDHB-deficient) (assay: Cellular / differential toxicity assay (CellTiter-Glo, 3 days)). Conditions: Mus musculus, 72 h, toxicity, SDH-KO cells, 3 days, CellTiter-Glo; read-out: EC50 (uM) SDH-KO-HTAS-C17.
Format: cell-based, murine
Method: (§1) Identification of compounds that target specifically SDH-deficient cells was done by screening a library of small-molecule by using a differential toxicity screen with SDHB-proficient vs. SDHB-deficient cells (the […] cells were described in Cardaci 2015).
(§2) Cells Used for the Differential Assays: SDH-WT; SDH-KO-HRAS
(§3) Cell Culture Conditions: • Medium: DMEM-F12 medium+1 mM Glutamine+3% FBS • Plates: 96 well plate—Black, clear flat bottom • Incubation time: 3 days • Compound concentration: 10 point dilution starting from 10 uM to 0.0065 uM or a lower range when needed. • Viability assay at the end of incubation: Celltiter-Glo (CTG) from Promega.
(§4) Protocol: • Day 1: Plate cells in 96 well plate together with the appropriate concentration of compound.
(§5) Incubate for 3 days at 37° C. in 5% CO2 tissue culture incubator. • Day 4: Check viability of cells by adding CTG reagent and read luminescence in plate reader
(§6) SDH-WT and SDH-KO cells were grown in DMEM F12 supplemented with 1 mM Glutamine+3% FBS were treated with different concentrations of the indicated compounds in FIG. 11. Cell viability was determined 72 hours later by CellTiter Glue reagent (Promega), the luminescence was measured with ClarioStar reader (BMG) and the EC50s were calculated by Prism.
as §6, with “compounds.” for “compounds in FIG. 11.”
(§7) The cells were grown in DMEM F12 supplemented with 1 mM Glutamine+3% FBS were treated with different concentrations of the indicated compounds. Cell viability was determined 72 hours later by CellTiter Glue reagent (Promega), the luminescence was measured with ClarioStar reader (BMG) and the EC50s were calculated by Prism. Murine SDHB-WT/KO, HRAS transformed isogenic pair (FIG. 12A); UOK269, Human Tumor-derived SDHB-deficient RCC in their WT counterpart with re-expression of SDHB (FIG. 12B); and ACHN, RCC cells, and their SDHB-KO (SDHB CRISPRed out) isogenic cells (FIG. 12C).
CC(=O)Nc1ccc(CCNc2ncnc3c2sc2nc4c(cc23)COC(C)(C)C4)cc1F [Compound 204] gave an EC50 of 1 to 3 µM.
CC1(C)Cc2nc3sc4c(NCCc5ccc(N)c([N+](=O)[O-])c5)ncnc4c3cc2CO1 [Compound 205] was tested, and the EC50 was < 1 µM.
In the case of CC1(C)Cc2nc3sc4c(NCCc5ccc6[nH]cnc6c5)ncnc4c3c(-c3ccccc3)c2CO1 [Compound 206], the EC50 is reported as < 1 µM.
COc1ccc(CCNC(=O)c2sc3nc4c(cc3c2NC(=O)C(F)(F)F)COC(C)(C)C4)cc1F [Compound 207] was tested, and the EC50 was 3 to 10 µM.
In the case of COc1ccc(CCNC(=O)c2sc3nc4c(cc3c2N)COC(C)(C)C4)cc1F [Compound 208], the EC50 is reported as > 10 µM.
With COc1ccc(CCNc2ncnc3c2sc2nc4c(cc23)CC(C(=O)O)CC4)cc1F (centres unmarked) [Compound 209] the EC50 was > 10 µM.
Molecule CC1(C)Cc2nc3sc4c(NCCc5ccc6[nH]cnc6c5)ncnc4c3c(C(=O)OCCCCCCCC(=O)O)c2CO1 [Compound 210] has an EC50 of 3 to 10 µM.
CC1(C)Cc2nc3sc4c(NCCc5ccc6[nH]cnc6c5)ncnc4c3c(C(=O)OCCCCCCCCCCCCCCCC(=O)O)c2CO1 [Compound 211] showed an EC50 of 3 to 10 µM.
For CC1(C)Cc2nc3sc4c(NCCc5ccc6[nH]cnc6c5)ncnc4c3c(C(=O)OCCCCCCCCCCCC(=O)O)c2CO1 [Compound 212], the EC50 was 3 to 10 µM.
In the case of COCOCCOCCOCCOCc1c2c(nc3sc4c(NCCc5ccc6[nH]cnc6c5)ncnc4c13)CC(C)(C)OC2 [Compound 213], the EC50 is reported as 1 to 3 µM.
COCCOCCOCCOCCOCCOCc1c2c(nc3sc4c(NCCc5ccc6[nH]cnc6c5)ncnc4c13)CC(C)(C)OC2 [Compound 214] gave an EC50 of 1 to 3 µM.
With CCCCCCNc1nc(C)nc2c1sc1nc3c(cc12)COC(C)(C)C3 [Compound 215] the EC50 was > 10 µM.
With CCCCCCNc1ncnc2c1sc1nc3c(cc12)COC(C)(C)C3 [Compound 216] the EC50 was > 10 µM.
With CCN(CC)CCNc1ncnc2c1sc1nc3c(cc12)COC(C)(C)C3 [Compound 218] the EC50 was > 10 µM.
In the case of CCC(C)Nc1nc(C)nc2c1sc1nc3c(cc12)COC(C)(C)C3 (centres unmarked) [Compound 219], the EC50 is reported as 3 to 10 µM.
In the case of Cc1nc(NCC(C)C)c2sc3nc4c(cc3c2n1)COC(C)(C)C4 [Compound 220], the EC50 is reported as > 10 µM.
For Cc1nc(NCCCO)c2sc3nc4c(cc3c2n1)COC(C)(C)C4 [Compound 222], the EC50 was > 10 µM.
In the case of Cc1nc(N2CCOCC2)c2sc3nc4c(cc3c2n1)COC(C)(C)C4 [Compound 223], the EC50 is reported as > 10 µM.
With CC(C)CNc1ncnc2c1sc1nc3c(cc12)COC(C)(C)C3 [Compound 224] the EC50 was > 10 µM.
Cc1nc(NCCN(C)C)c2sc3nc4c(cc3c2n1)COC(C)(C)C4 [Compound 225] was tested, and the EC50 was > 10 µM.
In the case of Cc1nc(NCCCN(C)C)c2sc3nc4c(cc3c2n1)COC(C)(C)C4 [Compound 226], the EC50 is reported as > 10 µM.
In the case of CN(C)CCNc1ncnc2c1sc1nc3c(cc12)COC(C)(C)C3 [Compound 227], the EC50 is reported as > 10 µM.
In the case of CN(C)CCCNc1ncnc2c1sc1nc3c(cc12)COC(C)(C)C3 [Compound 228], the EC50 is reported as > 10 µM.
CCCCNc1nc(C)nc2c1sc1nc3c(cc12)COC(C)(C)C3 [Compound 229] showed an EC50 of 3 to 10 µM.
In the case of Cc1nc(NCCN2CCOCC2)c2sc3nc4c(cc3c2n1)COC(C)(C)C4 [Compound 230], the EC50 is reported as > 10 µM.

These molecules were tested on SDH-WT cells in the same assay as above. Conditions: Mus musculus, 72 h, toxicity, SDH-WT cells, 3 days, CellTiter-Glo; read-out: EC50 (uM) SDH-WT.
Format: cell-based, murine
Method: as §1, §2, §3, §4, §5, §6
as §6, with “compounds.” for “compounds in FIG. 11.”
as §7
CC(=O)Nc1ccc(CCNc2ncnc3c2sc2nc4c(cc23)COC(C)(C)C4)cc1F [Compound 204] was tested, and the EC50 was > 10 µM.
For CC1(C)Cc2nc3sc4c(NCCc5ccc(N)c([N+](=O)[O-])c5)ncnc4c3cc2CO1 [Compound 205], the EC50 was 3 to 10 µM.
For CC1(C)Cc2nc3sc4c(NCCc5ccc6[nH]cnc6c5)ncnc4c3c(-c3ccccc3)c2CO1 [Compound 206], the EC50 was < 1 µM.
In the case of COc1ccc(CCNC(=O)c2sc3nc4c(cc3c2NC(=O)C(F)(F)F)COC(C)(C)C4)cc1F [Compound 207], the EC50 is reported as 1 to 3 µM.
COc1ccc(CCNC(=O)c2sc3nc4c(cc3c2N)COC(C)(C)C4)cc1F [Compound 208] was tested, and the EC50 was > 10 µM.
COc1ccc(CCNc2ncnc3c2sc2nc4c(cc23)CC(C(=O)O)CC4)cc1F (centres unmarked) [Compound 209] was tested, and the EC50 was > 10 µM.
CC1(C)Cc2nc3sc4c(NCCc5ccc6[nH]cnc6c5)ncnc4c3c(C(=O)OCCCCCCCC(=O)O)c2CO1 [Compound 210] was tested, and the EC50 was < 1 µM.
In the case of CC1(C)Cc2nc3sc4c(NCCc5ccc6[nH]cnc6c5)ncnc4c3c(C(=O)OCCCCCCCCCCCCCCCC(=O)O)c2CO1 [Compound 211], the EC50 is reported as 3 to 10 µM.
CC1(C)Cc2nc3sc4c(NCCc5ccc6[nH]cnc6c5)ncnc4c3c(C(=O)OCCCCCCCCCCCC(=O)O)c2CO1 [Compound 212] was tested, and the EC50 was 3 to 10 µM.
COCOCCOCCOCCOCc1c2c(nc3sc4c(NCCc5ccc6[nH]cnc6c5)ncnc4c13)CC(C)(C)OC2 [Compound 213] was tested, and the EC50 was > 10 µM.
For COCCOCCOCCOCCOCCOCc1c2c(nc3sc4c(NCCc5ccc6[nH]cnc6c5)ncnc4c13)CC(C)(C)OC2 [Compound 214], the EC50 was > 10 µM.
With CCCCCCNc1nc(C)nc2c1sc1nc3c(cc12)COC(C)(C)C3 [Compound 215] the EC50 was > 10 µM.
For CCCCCCNc1ncnc2c1sc1nc3c(cc12)COC(C)(C)C3 [Compound 216], the EC50 was > 10 µM.
In the case of CCN(CC)CCNc1ncnc2c1sc1nc3c(cc12)COC(C)(C)C3 [Compound 218], the EC50 is reported as > 10 µM.
In the case of CCC(C)Nc1nc(C)nc2c1sc1nc3c(cc12)COC(C)(C)C3 (centres unmarked) [Compound 219], the EC50 is reported as > 10 µM.
For Cc1nc(NCC(C)C)c2sc3nc4c(cc3c2n1)COC(C)(C)C4 [Compound 220], the EC50 was > 10 µM.
In the case of Cc1nc(NCCCO)c2sc3nc4c(cc3c2n1)COC(C)(C)C4 [Compound 222], the EC50 is reported as > 10 µM.
With Cc1nc(N2CCOCC2)c2sc3nc4c(cc3c2n1)COC(C)(C)C4 [Compound 223] the EC50 was > 10 µM.
In the case of CC(C)CNc1ncnc2c1sc1nc3c(cc12)COC(C)(C)C3 [Compound 224], the EC50 is reported as > 10 µM.
With Cc1nc(NCCN(C)C)c2sc3nc4c(cc3c2n1)COC(C)(C)C4 [Compound 225] the EC50 was > 10 µM.
With Cc1nc(NCCCN(C)C)c2sc3nc4c(cc3c2n1)COC(C)(C)C4 [Compound 226] the EC50 was > 10 µM.
For CN(C)CCNc1ncnc2c1sc1nc3c(cc12)COC(C)(C)C3 [Compound 227], the EC50 was > 10 µM.
With CN(C)CCCNc1ncnc2c1sc1nc3c(cc12)COC(C)(C)C3 [Compound 228] the EC50 was > 10 µM.
For CCCCNc1nc(C)nc2c1sc1nc3c(cc12)COC(C)(C)C3 [Compound 229], the EC50 was > 10 µM.
For Cc1nc(NCCN2CCOCC2)c2sc3nc4c(cc3c2n1)COC(C)(C)C4 [Compound 230], the EC50 was > 10 µM.
